The test system of assay [1] is MLKL phosphorylation in HT29-L23 human colorectal adenocarcinoma cells. Nature of the assay: MLKL Phosphorylation High-Content Assay. The note with it: necroptosis induced with TNFα, SMAC mimetic and Z-VAD, 6 h, read-out: pMLKL (IC50). The format is cell-based. Here is the method: MLKL Phosphorylation High-Content Assay
HT29-L23 human colorectal adenocarcinoma cells were maintained in RPMI 1640 medium containing 10% heat-inactivated FBS, 1% Penicillin-Streptomycin and 10 mM HEPES. Cells were seeded at 2,000 cells/well in 384 well tissue culture-treated microplates (Greiner #781090-3B) and incubated at 37° C. (5% CO2/95% O2) for 2 d. On the day of the assay, the cells were treated with test compounds at final concentrations of 6.25 to 0.106 μM for 30 min at 37° C. (5% CO2/95% O2). Necroptopsis was induced using a mixture of human TNFα (35 ng/mL) (Peprotech #300-01A), SMAC mimetic (from US 2015/0322111 A1) (700 nM) and Z-VAD (140 nM) (BD pharmingen #51-6936). Following 6 h incubation at 37° C. (5% CO2/95% O2), the cells were fixed with 4% formaldehyde (ACROS 11969-0010) for 15 min at rt, then permeabilized with phosphate buffered saline (PBS) containing 0.2% Triton-X-100 for 10 min. MLKL phosphorylation was detected using anti-MLKL (phospho S358) antibody (Abcam #ab187091) (1:1000 dilution in Blocking Buffer [PBS supplemented with 0.1% BSA]) with ON incubation at 4° C. After washing three times in PBS, goat anti-rabbit Alexa-488 (1:1000 dilution) (Life Technologies, A1 1008) and Hoechst 33342 (Life Technologies, H3570) (1:2000 dilution) in Blocking Buffer were added for 1 h at rt. Following another three cycles of washes in PBS, the microplates were sealed, and cellular images were acquired in the Cellomics ArrayScan VTI high-content imager equipped with an X1 camera. Fluorescent images were taken using a 10× objective and the 386-23 BGRFRN_BGRFRN and 485-20 BGRFRN_BGRFRN filter sets, for nuclei and MLKL phosphorylation, respectively. The image sets were analyzed using the Compartmental Analysis Bioapplication software (Cellomics). The level of MLKL phosphorylation was quantified as MEAN_CircRingAvglntenRatio. The maximal inhibitory response was defined by the activity induced by Necls (CAS #: 852391-15-2, 6.25 μm). The IC50 value was defined as the concentration of compound that produces 50% of the maximal inhibition. The data were fitted using the 4-parameter logistic equation to calculate the IC50 and Ymax values.

In assay [2] the target is T1, His-GST-TVMV-hRIPK1(1-324) (Homo sapiens, UniProt Q13546).
T1 construct: 1 nM His-GST-TVMV-hRIPK1(1-324) in FRET Buffer; made in house; host or cells: Spodoptera frugiperda (Sf9) insect cells, baculovirus (Bac-to-Bac)
T1 sequence (Q13546 1-324): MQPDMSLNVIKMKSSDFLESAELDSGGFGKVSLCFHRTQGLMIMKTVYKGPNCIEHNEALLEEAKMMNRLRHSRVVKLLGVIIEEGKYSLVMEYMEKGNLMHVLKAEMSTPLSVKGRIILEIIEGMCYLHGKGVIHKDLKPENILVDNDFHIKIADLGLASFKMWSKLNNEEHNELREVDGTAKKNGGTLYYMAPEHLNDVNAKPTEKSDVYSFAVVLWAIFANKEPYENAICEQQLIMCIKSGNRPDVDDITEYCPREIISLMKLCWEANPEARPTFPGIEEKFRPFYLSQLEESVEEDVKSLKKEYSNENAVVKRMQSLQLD
Nature of the assay: RIPK1 HTRF Binding Assay. The note with it: HTRF probe displacement, 1 h at rt. On the procedure: A solution was prepared containing 0.2 nM Anti GST-Tb (Cisbio, 61GSTTLB), 90.6 nM probe and 1 nM His-GST-TVMV-hRIPK1(1-324) in FRET Buffer (20 mM HEPES, 10 mM MgCl2, 0.015% Brij-35, 4 mM DTT, 0.05 mg/mL BSA). Using Formulatrix Tempest, the detection antibody/enzyme/probe solution ([…]) was dispensed into wells of a 1536 plate (Black Low Binding Polystyrene 1536 Plate (Corning, 3724)) containing 10 nL of compounds of interest at appropriate concentration in DMSO. The plate was incubated at rt for 1 h. FRET was measured using the EnVision plate reader (Excitation: 340 nm, Emission: 520 nm/[…]). Total signal (0% inhibition) was calculated from wells containing 10 nL DMSO only.
Cloning and Baculovirus Expression of RIPK1 Construct
The coding region of human RIPK1(1-324) flanked by NdeI site at 5′ end and stop codon TGA and XhoI site at 3′ end was codon optimized and gene synthesized at GenScript USA Inc. (Piscataway, NJ) and subcloned into a modified pFastBac1 vector (Invitrogen, Carlsbad, CA) with N-terminal His-GST-TVMV tag, to generate His-GST TVMV-hRIPK1(1-324)-pFB. The fidelity of the synthetic fragment was confirmed by sequencing. Baculovirus was generated for the construct using the Bac-to-Bac baculovirus expression system (Invitrogen) according to the manufacturer's protocol. Briefly, recombinant bacmid was isolated from transformed DH10Bac E. coli competent cells 20 (Invitrogen) and used to transfect Spodoptera frugiperda (Sf9) insect cells (Invitrogen). Baculovirus was harvested 72 hours post transfection and a virus stock was prepared by infecting fresh Sf9 cells at a 1/1000 (v/v) ratio for 66 hours. For large scale protein production, Sf9 cells (Expression System, Davis, CA) grown in ESF921 insect medium (Expression System) at 2×10^6 cells/ml were infected with virus stock at a 1/100 (v/v) ratio for 66 hours. The production was carried out either at a 10 L scale in a 22 L cellbag (GE Healthcare Bioscience, Pittsburgh, PA) or at a 20 L scale in a 50 L cellbag using WAVE-Bioreactor System 20/50 (GE Healthcare Bioscience). The infected cells were harvested by centrifugation at 2000 rpm for 20 min at 4° C. in a SORVALL® RC12BP centrifuge. The cell pellets was stored at −70° C. before protein was purified.
Purification of His-GST-TVMV-hRIPK1(1-324)
RIPK1 containing cell paste was resuspended in 50 mM Tris pH 7.5, 150 mM NaCl, 10 mM imidazole, 5% glycerol, 5 mM MgSO4, 1 mM TCEP, 25 U/ml Benzonase, and Complete Protease Inhibitor tablets (1/50 ml, Roche Diagnostics, Indianapolis, IN). The cells were lysed by nitrogen cavitation using an unstirred pressure vessel @ 525 PSI (Parr Instrument Company, Moline, IL). The suspension was clarified by centrifugation at 136,000×g for 40 min, at 4° C. The lysate was decanted from the pellet and passed through a 5 ml NiNTA Superflow cartridge (Qiagen, Valencia, CA) using an AKTA Pure (GE Healthcare). Column was eluted with 10 CV linear gradient into 50 mM Tris 7.5, 150 mM NaCl, 500 mM imidazole, 5% glycerol, 1 mM TCEP. Peak fractions were pooled and loaded directly onto 5 ml GSTrap 4B column (GE Healthcare). Column was washed with 50 mM Tris 7.0, 150 mM NaCl, […], 1 mM DTT and eluted in 10 CV linear gradient into 50 mM Tris 8.0, 150 mM NaCl, 20 mM reduced glutathione, 50% glycerol, 1 mM DTT. Fractions identified by SDS-PAGE as containing RIPK1 were pooled and concentrated using 30 kDa MWCO spin concentrators (Amicon Ultra-15, Millipore, Billerica, MA) and loaded onto a HiLoad 26/600 Superdex 200 column (GE Healthcare) equilibrated in 25 mM Tris 7.5, 150 mM NaCl, 2 mM TCEP, […]. The RTPK1 protein eluted as a dimer off the SEC column. The yield was ˜8 mg/L with a purity […] as determined by Coomassie stain SDS-PAGE gel analysis. […] Protein was aliquoted and stored at −80° C. Using these assays, the IC50 values of the following compounds were determined.

Where two headings read alike, the source gives them in different places.

Consider `CNC(=O)c1n[nH]c2cc(-c3nc(C)c(C(=O)NCC[C@@H](O)c4ccc(Cl)cc4)n3C)ccc12` [Example 28, (R)-6-(5-((3-(4-chlorophenyl)-3-hydroxypropyl)carbamoyl)-1,4-dimethyl-1H-imidazol-2-yl)-N-methyl-1H-indazole-3-carboxamide], for which the IC50 in assay [1] (Homo sapiens) was determined as 2600 nM; in assay [2], 460 nM.
Turning to `CNC(=O)c1n[nH]c2cc(-c3nc(C)c(C(=O)NCC[C@H](O)c4ccc(Cl)cc4)n3C)ccc12` [Example 29, (S)-6-(5-((3-(4-chlorophenyl)-3-hydroxypropyl)carbamoyl)-1,4-dimethyl-1H-imidazol-2-yl)-N-methyl-1H-indazole-3-carboxamide], the IC50 came to 3300 nM in assay [1] (Homo sapiens) and 1900 nM in assay [2].
The like results for `CNC(=O)c1n[nH]c2cc(-c3nc(C)c(C(=O)NCc4cc(C(F)(F)F)ccc4F)n3C)ccc12` [Example 30, 6-(5-((2-fluoro-5-(trifluoromethyl)benzyl)carbamoyl)-1,4-dimethyl-1H-imidazol-2-yl)-N-methyl-1H-indazole-3-carboxamide] were, in that order, 150 nM and 100 nM.
The like results for `CNC(=O)c1n[nH]c2cc(-c3nc(C(=O)NCc4cc(OC(F)(F)F)ccc4F)c(C)n3C)ccc12` [Example 31, 6-(4-((2-fluoro-5-(trifluoromethoxy)benzyl)carbamoyl)-1,5-dimethyl-1H-imidazol-2-yl)-N-methyl-1H-indazole-3-carboxamide] were, in that order, 600 nM and 66 nM.
`CNC(=O)c1n[nH]c2cc(-c3nc(C(=O)NCCC(C)c4ccccc4)c(C)n3C)ccc12` (stereo not drawn) [Example 32, 6-(1,5-dimethyl-4-((3-phenylbutyl)carbamoyl)-1H-imidazol-2-yl)-N-methyl-1H-indazole-3-carboxamide]: the IC50 is 460 nM in assay [1] (Homo sapiens) and 230 nM in assay [2].
Regarding `CNC(=O)c1n[nH]c2cc(-c3nc(C(=O)NCC[C@@H](O)c4ccc(Cl)cc4)c(C)n3C)ccc12` [Example 33, (R)-6-(4-((3-(4-chlorophenyl)-3-hydroxypropyl)carbamoyl)-1,5-dimethyl-1H-imidazol-2-yl)-N-methyl-1H-indazole-3-carboxamide], the results for the IC50 in assay [1] (Homo sapiens) and in assay [2] were 2200 nM and 570 nM, respectively.
Turning to `CNC(=O)c1n[nH]c2cc(-c3nc(C(=O)NCC[C@H](O)c4ccc(Cl)cc4)c(C)n3C)ccc12` [Example 34, (S)-6-(4-((3-(4-chlorophenyl)-3-hydroxypropyl)carbamoyl)-1,5-dimethyl-1H-imidazol-2-yl)-N-methyl-1H-indazole-3-carboxamide], the IC50 in assay [1] (Homo sapiens) was 1700 nM; in assay [2], 760 nM.
In the case of `CNC(=O)c1n[nH]c2cc(-c3nc(C(=O)NCc4cc(C(F)(F)F)ccc4F)c(C)n3C)ccc12` [Example 35, 6-(4-((2-fluoro-5-(trifluoromethyl)benzyl)carbamoyl)-1,5-dimethyl-1H-imidazol-2-yl)-N-methyl-1H-indazole-3-carboxamide], the figures for the IC50 in assay [1] (Homo sapiens) and in assay [2] were 890 nM and 200 nM, respectively.
Consider “(S)-6-(5-((3-(4-chlorophenyl)-3-hydroxypropyl)carbamoyl)-4-methylthiophen-2-yl)-N-methyl-1H-indazole-3-carboxamide [Example 13]”, for which the IC50 in assay [1] amounted to 23 nM; in assay [2], 10 nM.
